What is called pIC50 is −log10 of the IC50, conventionally taken in molar units.

pIC50: −log10 of the molar value.

Consider two compounds from patent US12435101B2, “Isochroman compound” (Zhejiang Yangli Pharmaceutical Technology Co., Ltd., priority 2020, dated 2025).

In this assay the test system is NCI-H460 cells. Put plainly: Antiproliferative activity on NCI-H460 cell line (CellTiter-Glo). The format is cell-based. To be noted: Homo sapiens; NCI-H460 (lung cancer, high AKR1C3); 2 hours with drug, then 70 hours drug-free. The method, then:
RPMI-1640 medium and penicillin/streptomycin antibiotics were purchased from Vicente, and fetal bovine serum was purchased from Biosera. CellTiter-Glo (Cell Viability Chemiluminescence Detection Reagent) reagent was purchased from Promega. The NCI-H460 cell line was purchased from Nanjing Kebai Biotechnology Co., Ltd. Nivo Multimode Plate Reader (PerkinElmer).
NCI-H460 cells (lung cancer) were seeded in a 96-well plate, 80 μL of cell suspension per well, which contained 4000 NCI-H460 cells. The cell plate was incubated overnight in a carbon dioxide incubator. The compound to be tested was diluted 5-fold to the ninth concentration with a multi-channel pipette, that is, the compound to be tested was diluted from 2 mM to 5.2 nM, and an experiment for the sample assayed in duplicate was set up. 78 μL of medium was added to the middle plate, and 2 μL of the gradient-diluted compound per well was transferred to the middle plate according to the corresponding position, then 20 μL per well was transferred to the cell plate after mixing. […] Another cell plate was prepared, and the signal value was read as the maximum value (Max value in the following equation) on the day of drug addition to participate in data analysis. […] The multimode plate reader was used for readings. […]. […]
For orientation: Cellular ATP, detected with luciferase, serves as a proxy for viable cell number.

`O=[N+]([O-])c1cc2c(cc1Oc1cccnc1F)C(OP(=O)(N1CC1)N1CC1)COC2` (centres unmarked) [Compound 1] gave a pIC50 of 8.42.

The compound `O=[N+]([O-])c1cc2c(cc1Oc1ccccc1F)C(OP(=O)(N1CC1)N1CC1)COC2` (centres unmarked) [Compound 2] had a pIC50 of 7.67.
